Results as given in US20250074888A1, “PYRIDAZINE DERIVATIVES AS MODULATORS OF NLRP3 INFLAMMASOME AND RELATED METHODS” (Neumora Therapeutics, Inc., priority 2021, published 2025).

How the values were obtained:
NLRP3 inflammasome = NLRP3 inflammasome (Homo sapiens, UniProt Q96P20); assay: NLRP3 inflammasome activation in THP1 macrophages (LPS priming, nigericin), IL-1β AlphaLISA; format: cell-based; conditions: PMA-differentiated THP1, LPS 20 ng/ml 3 hrs, compound 1 hr, Nigericin 6.7 uM 3 hrs, supernatant
IL-6 = IL-6 release from LPS-primed, nigericin-treated THP1 macrophages, Hu IL-6 AlphaLISA; format: cell-based; conditions: Homo sapiens, THP-1; PMA-differentiated THP1, LPS 20 ng/ml 3 hrs, compound 1 hr, Nigericin 6.7 uM 3 hrs, supernatant

Sequence of NLRP3 inflammasome (Q96P20 whole entry): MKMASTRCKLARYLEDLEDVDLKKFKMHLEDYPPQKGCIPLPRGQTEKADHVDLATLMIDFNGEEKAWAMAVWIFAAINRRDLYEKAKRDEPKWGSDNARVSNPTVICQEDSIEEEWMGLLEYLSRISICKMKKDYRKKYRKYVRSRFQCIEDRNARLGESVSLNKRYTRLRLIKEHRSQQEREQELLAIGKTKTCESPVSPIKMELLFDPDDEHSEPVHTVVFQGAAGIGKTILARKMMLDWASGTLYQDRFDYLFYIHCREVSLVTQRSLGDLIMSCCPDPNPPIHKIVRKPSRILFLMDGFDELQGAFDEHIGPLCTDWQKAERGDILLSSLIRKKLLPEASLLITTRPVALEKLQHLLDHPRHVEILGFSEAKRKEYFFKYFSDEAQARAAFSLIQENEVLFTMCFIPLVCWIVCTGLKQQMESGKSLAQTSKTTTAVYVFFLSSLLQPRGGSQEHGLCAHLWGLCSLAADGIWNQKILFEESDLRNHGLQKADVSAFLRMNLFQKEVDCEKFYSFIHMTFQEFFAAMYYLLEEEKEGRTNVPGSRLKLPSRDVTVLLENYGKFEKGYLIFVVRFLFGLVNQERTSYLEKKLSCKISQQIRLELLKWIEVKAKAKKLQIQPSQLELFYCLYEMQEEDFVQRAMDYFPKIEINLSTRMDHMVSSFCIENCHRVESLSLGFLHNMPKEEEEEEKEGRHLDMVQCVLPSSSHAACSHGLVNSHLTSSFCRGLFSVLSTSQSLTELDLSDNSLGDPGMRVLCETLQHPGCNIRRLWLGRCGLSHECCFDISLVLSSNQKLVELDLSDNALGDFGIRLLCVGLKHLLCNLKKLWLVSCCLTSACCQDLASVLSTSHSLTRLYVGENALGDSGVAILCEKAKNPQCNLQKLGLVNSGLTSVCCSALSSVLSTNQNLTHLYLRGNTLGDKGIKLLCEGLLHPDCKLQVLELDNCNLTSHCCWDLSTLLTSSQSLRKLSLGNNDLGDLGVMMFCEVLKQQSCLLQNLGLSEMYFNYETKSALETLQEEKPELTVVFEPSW

SMILES | IC50 (NLRP3 inflammasome) [nM] | IC50 (IL-6) [nM]
CCN1CCC[C@@H](Nc2cc(C)c(-c3ccc(C(F)(F)F)cc3)nn2)C1 [compound 1] | ≤ 10 | > 10000
Cc1cc(N[C@@H]2CCCN(C)C2)nnc1-c1ccc(C(F)(F)F)cc1 [compound 3, (R)-5-methyl-N-(1-methylpiperidin-3-yl)-6-(4-(trifluoromethyl)phenyl)-pyridazin-3-amine] | 10 to 50 | 5000 to 10000
CN1CCC[C@@H](Nc2ccc(-c3ccc(Cl)cc3C(F)(F)F)nn2)C1 [compound 4] | 10 to 50 | 5000 to 10000
Cc1cc(N[C@@H]2CCCN(C)C2)nnc1-c1ccc(C(F)(F)F)cc1F [compound 6] | 10 to 50 | > 10000
Cc1cc(N[C@@H]2CCCN(C)C2)nnc1-c1ccc(OC(F)(F)F)cc1 [compound 7] | 10 to 50 | > 10000
COc1cc(C(F)(F)F)ccc1-c1nnc(N[C@@H]2CCCN(C)C2)cc1C [compound 8] | 10 to 50 | > 10000
Cc1cc(C(F)(F)F)ccc1-c1nnc(N[C@@H]2CCCN(C)C2)cc1C [compound 9] | 10 to 50 | 1000 to 5000
CCc1cc(N[C@@H]2CCCN(C)C2)nnc1-c1ccc(C(F)(F)F)cc1 [compound 10] | 10 to 50 | 5000 to 10000
Cc1ccc(-c2nnc(N[C@@H]3CCCN(C)C3)cc2C)cc1 [compound 11] | 10 to 50 | 1000 to 5000
CCc1ccc(-c2nnc(N[C@@H]3CCCN(C)C3)cc2C)cc1 [compound 12] | 10 to 50 | > 10000
Cc1ccc(-c2nnc(N[C@@H]3CCCN(C)C3)cc2C(F)(F)F)cc1 [compound 13] | 50 to 100 | 5000 to 10000
Cc1c(N[C@@H]2CCCN(C)C2)nnc(-c2ccc(C(F)(F)F)cc2)c1C [compound 14] | 10 to 50 | > 10000
Cc1cc(N[C@@H]2CCCN(CCO)C2)nnc1-c1ccc(C(F)(F)F)cc1 [compound 15, 2-[(3R)-3-[[5-methyl-6-[4-(trifluoromethyl)phenyl]pyridazin-3-yl]amino]-1-piperidyl]ethanol] | 10 to 50 | > 10000
Cc1cc(N[C@@H]2CCCN(C)C2)nnc1-c1ccc(F)cc1 [compound 16] | 10 to 50 | > 10000
Cc1cc(N[C@@H]2C[C@@H](F)CN(C)C2)nnc1-c1ccc(C(F)(F)F)cc1 [compound 17] | 50 to 100 | > 10000
CN1CCC[C@@H](Nc2ccc(-c3ccc(Cl)cc3Cl)nn2)C1 [compound 18] | 50 to 100 | 5000 to 10000
Cc1cc(C(F)(F)F)ccc1-c1ccc(N[C@@H]2CCCN(C)C2)nn1 [compound 19] | 100 to 500 | 5000 to 10000
CN1CCC[C@@H](Nc2ccc(-c3ccc(C(F)(F)F)cc3Cl)nn2)C1 [compound 20] | 100 to 500 | > 10000
Cc1ccc(-c2ccc(N[C@@H]3CCCN(C)C3)nn2)c(C)c1 [compound 21] | 100 to 500 | 5000 to 10000
Cc1cc(N[C@@H]2CCCNC2)nnc1-c1ccc(C(F)(F)F)cc1 [compound 22] | 50 to 100 | > 10000
CC(C)c1cc(N[C@@H]2CCCN(C)C2)nnc1-c1ccc(C(F)(F)F)cc1 [compound 23] | 100 to 500 | > 10000
CCN1CCC[C@@H](Nc2nnc(-c3ccc(C(F)(F)F)cc3)cc2C)C1 [compound 24] | 100 to 500 | > 10000
Cc1cc(N[C@@H]2CCCN(CCF)C2)nnc1-c1ccc(C(F)(F)F)cc1 [compound 25] | 50 to 100 | > 10000

SMILES | IC50 (NLRP3 inflammasome) [nM] | IC50 (IL-6) [nM]
Cc1cc(N[C@@H]2CCCN(C)C2)nnc1-c1ccc(C(F)(F)F)c(F)c1 [compound 26] | 100 to 500 | > 10000
Cc1cc(N[C@@H]2CCCN(C)C2)nnc1-c1ccc(F)cc1F [compound 27] | 100 to 500 | > 10000
Cc1cc(N[C@@H]2CCCN(C)C2)nnc1-c1ccc(C2CCC2)cc1 [compound 28] | 100 to 500 | 5000 to 10000
Cc1cc(-c2ccc(C(F)(F)F)cc2F)nnc1N[C@@H]1CCCN(C)C1 [compound 29] | 100 to 500 | > 10000
CCc1cc(-c2ccc(C(F)(F)F)cc2)nnc1N[C@@H]1CCCN(C)C1 [compound 30] | 100 to 500 | > 10000
Cc1cc(N[C@@H]2CCCN(C)C2)nnc1-c1ccc(C#N)cc1 [compound 31] | 100 to 500 | > 10000
COc1ccc(-c2nnc(N[C@@H]3CCCN(C)C3)cc2C)cc1 [compound 32] | 100 to 500 | > 10000
Cc1cc(N[C@@H]2CCCN(C)C2)nnc1-c1cc(C)c(F)c(C)c1 [compound 33] | 100 to 500 | > 10000
Cc1cc(N[C@@H]2CCCN(C)C2)nnc1-c1ccc(F)c(Cl)c1 [compound 34] | 100 to 500 | > 10000
COc1cc(C(F)(F)F)ccc1-c1cc(C)c(N[C@@H]2CCCN(C)C2)nn1 [compound 35] | 500 to 1000 | > 10000
Cc1cc(-c2ccc(C(F)(F)F)cc2)nnc1N[C@@H]1CCCN(C)C1 [compound 36] | 500 to 1000 | > 10000
Cc1cc(N[C@@H]2CCCN(C)C2)nnc1-c1cccc(C(C)C)c1 [compound 37] | 500 to 1000 | > 10000
Cc1cc(-c2ccc(C(F)(F)F)c(F)c2)nnc1N[C@@H]1CCCN(C)C1 [compound 38] | 500 to 1000 | > 10000
Cc1cc(N[C@@H]2CCCN(C)C2)nnc1-c1ccc(C(F)(F)F)c(Cl)c1 [compound 39] | 500 to 1000 | > 10000
Cc1cc(N[C@@H]2CCCN(C)C2)nnc1-c1ccc(C(F)(F)F)cc1C#N [compound 40] | 50 to 100 | 5000 to 10000
CN1CCC[C@@H](Nc2nnc(-c3ccc(C(F)(F)F)cc3)cc2Cl)C1 [compound 41] | 100 to 500 | > 10000
Cc1cc(C(F)(F)F)cc(C)c1-c1ccc(N[C@@H]2CCCN(C)C2)nn1 [compound 42] | 500 to 1000 | 5000 to 10000
Cc1cc(N[C@@H]2CCCN(C)C2)nnc1-c1cccc(Cl)c1 [compound 43] | > 1000 | 5000 to 10000
Cc1cccc(-c2nnc(N[C@@H]3CCCN(C)C3)cc2C)c1 [compound 44] | 100 to 500 | > 10000
Cc1cc(N[C@@H]2CCCN(C)C2)nnc1-c1cccc(F)c1 [compound 45] | > 1000 | > 10000
Cc1cc(N[C@@H]2CCCN(C)C2)nnc1-c1cccc(C(F)(F)F)c1 [compound 46] | > 1000 | > 10000
Cc1cc(-c2cccc(C(F)(F)F)c2)nnc1N[C@@H]1CCCN(C)C1 [compound 47] | > 1000 | > 10000
Cc1cc(N[C@@H]2CCCN(C)C2)nnc1-c1cccc(C#N)c1 [compound 50] | > 1000 | > 10000

SMILES | IC50 (NLRP3 inflammasome) [nM] | IC50 (IL-6) [nM]
Cc1cc(-c2cccc(C#N)c2)nnc1N[C@@H]1CCCN(C)C1 [compound 51] | > 1000 | > 10000
COc1cccc(-c2nnc(N[C@@H]3CCCN(C)C3)cc2C)c1 [compound 52] | > 1000 | > 10000
COc1cccc(-c2cc(C)c(N[C@@H]3CCCN(C)C3)nn2)c1 [compound 53] | > 1000 | > 10000
Cc1cc(N[C@@H]2CCCN(C)C2)nnc1-c1ccccc1 [compound 54] | > 1000 | > 10000
CCc1cccc(-c2nnc(N[C@@H]3CCCN(C)C3)cc2C)c1 [compound 55] | > 1000 | > 10000
Cc1cc(-c2cccc(F)c2)nnc1N[C@@H]1CCCN(C)C1 [compound 56] | > 1000 | > 10000
COc1ccc(-c2cc(C)c(N[C@@H]3CCCN(C)C3)nn2)cc1 [compound 58] | > 1000 | > 10000
CN1CCC[C@@H](Nc2cc(C#N)c(-c3ccc(C(F)(F)F)cc3)nn2)C1 [compound 59] | 50 to 100 | > 10000
Cc1cc(N[C@@H]2CCCN(CC(F)F)C2)nnc1-c1ccc(C(F)(F)F)cc1 [compound 60] | 100 to 500 | 5000 to 10000
CN1CCC[C@@H](Nc2cc(C(F)(F)F)c(-c3ccc(C(F)(F)F)cc3)nn2)C1 [compound 61] | 10 to 50 | > 10000
Cc1cc(-c2nnc(N[C@@H]3CCCN(C)C3)cc2C)ccc1F [compound 62] | 10 to 50 | > 10000
Cc1cc(N[C@@H]2CCCN(C)C2)nnc1-c1ccc(C(F)(F)F)c(C#N)c1 [compound 63] | 100 to 500 | > 10000
Cc1cc(N[C@@H]2CCCN(C)C2)nnc1-c1ccc(F)c(F)c1 [compound 64] | 100 to 500 | > 10000
Cc1cc(N[C@@H]2CCCN(CCF)C2)nnc1-c1ccc(F)cc1 [compound 65] | 500 to 1000 | > 10000
Cc1cc(N[C@@H]2CCCN(CC3CC3)C2)nnc1-c1ccc(C(F)(F)F)cc1 [compound 66] | ≤ 10 | > 10000
CN1CCC[C@@H](Nc2ccc(-c3ccc(C(F)(F)F)cc3)nn2)C1 [compound 67] | 100 to 500 | > 10000
Cc1cc(N[C@@H]2CCCN(C3CC3)C2)nnc1-c1ccc(C(F)(F)F)cc1 [compound 68] | ≤ 10 | > 10000
Cc1cc(N[C@H]2CN(C)CC(F)(F)C2)nnc1-c1ccc(C(F)(F)F)cc1 [compound 69] | 50 to 100 | > 10000
Cc1cc(N[C@@H]2CCCN(CC3CC3)C2)nnc1-c1ccc(F)cc1 [compound 70] | ≤ 10 | > 10000
Cc1cc(-c2ccc(N[C@@H]3CCCN(C)C3)nn2)c(C)cc1F [compound 71] | 10 to 50 | > 10000
Cc1cc(-c2ccc(C(F)(F)F)cc2C#N)nnc1N[C@@H]1CCCN(C)C1 [compound 72] | 100 to 500 | > 10000
Cc1cc(-c2ccc(F)c(Cl)c2)nnc1N[C@@H]1CCCN(C)C1 [compound 73] | 100 to 500 | > 10000
